Measured values published in ChEMBL document CHEMBL4043164, “Design, synthesis and biological evaluation of novel antitumor spirotetrahydrothiopyran-oxindole derivatives as potent p53-MDM2 inhibitors” (Bioorg Med Chem, 2017).

Legend:
[1] = system: MCF7; assay: Cytotoxicity against human MCF7 cells assessed as reduction in cell viability incubated for 24 hrs by CCK8 assay; settings: MCF7, 24 h
[2] = system: HCT-116; assay: Cytotoxicity against human HCT116 cells assessed as reduction in cell viability incubated for 24 hrs by CCK8 assay; settings: HCT-116, 24 h
[3] = system: A549; assay: Cytotoxicity against human A549 cells assessed as reduction in cell viability incubated for 24 hrs by CCK8 assay; settings: A549, 24 h

Compound | IC50 [1] | IC50 [2] | IC50 [3]
O=C1C[C@@H]2CS[C@]3(C(=O)Nc4cccc(Br)c43)[C@H](c3ccc(Br)cc3)[C@H]2CN1c1ccc(Cl)cc1 | 4.2 µM | 8 µM | 4.8 µM
Cc1ccc(N2C[C@H]3[C@@H](CS[C@]4(C(=O)Nc5cccc(Br)c54)[C@@H]3c3ccc(Br)cc3)CC2=O)cc1 | 3 µM | 5.1 µM | 4.6 µM
COc1ccc(N2C[C@H]3[C@@H](CS[C@]4(C(=O)Nc5cccc(Br)c54)[C@@H]3c3ccc(Br)cc3)CC2=O)cc1 | 3 µM | 8.3 µM | 4.3 µM
COc1ccc(C2=N[C@H](c3ccc(Cl)cc3)[C@H](c3ccc(Cl)cc3)N2C(=O)N2CCNC(=O)C2)c(OC(C)C)c1 | 14.9 µM | 28.4 µM | 10 µM
COC(=O)C[C@@H]1CS[C@]2(C(=O)Nc3cccc(Br)c32)[C@H](c2ccc(Br)cc2)[C@H]1C=O | 8.5 µM | 17.3 µM | 11.2 µM
CCOc1cccc(N2C[C@H]3[C@@H](CS[C@]4(C(=O)Nc5cccc(Br)c54)[C@@H]3c3ccc(Br)cc3)CC2=O)c1 | 3.6 µM | 8.5 µM | 4.5 µM
O=C1C[C@@H]2CS[C@]3(C(=O)Nc4cccc(Br)c43)[C@H](c3ccc(Br)cc3)[C@H]2CN1c1ccc(F)cc1 | 4 µM | 10.5 µM | 4.4 µM
CN1CCN(c2ccc(N3C[C@H]4[C@@H](CS[C@]5(C(=O)Nc6cccc(Br)c65)[C@@H]4c4ccc(Br)cc4)CC3=O)cc2)CC1 | 5.9 µM | 8.8 µM | 6.3 µM
CCN(CC)c1ccc(N2C[C@H]3[C@@H](CS[C@]4(C(=O)Nc5cccc(Br)c54)[C@@H]3c3ccc(Br)cc3)CC2=O)cc1 | 1.8 µM | 2.4 µM | 2.9 µM
O=C1C[C@@H]2CS[C@]3(C(=O)Nc4cccc(Br)c43)[C@H](c3ccc(Br)cc3)[C@H]2CN1c1ccccc1 | 4 µM | 8.6 µM | 4.2 µM
O=C1C[C@@H]2CS[C@]3(C(=O)Nc4cccc(Br)c43)[C@H](c3ccc(Br)cc3)[C@H]2CN1c1ccc(N2CCOCC2)cc1 | 2.4 µM | 4.3 µM | 2.6 µM
COC(=O)C[C@@H]1CS[C@]2(C(=O)Nc3cccc(Br)c32)[C@H](c2ccc(Br)cc2)[C@H]1CNc1ccccc1F | 3.6 µM | 10.5 µM | 4.2 µM
O=C1C[C@@H]2CS[C@]3(C(=O)Nc4cccc(Br)c43)[C@H](c3ccc(Br)cc3)[C@H]2CN1c1cccc(F)c1 | 3.8 µM | 9.5 µM | 3.5 µM
COC(=O)C[C@@H]1CS[C@]2(C(=O)Nc3cccc(Br)c32)[C@H](c2ccc(Br)cc2)[C@H]1CNc1cccc(F)c1 | 2.8 µM | 8.6 µM | 3.5 µM
CCOc1ccc(N2C[C@H]3[C@@H](CS[C@]4(C(=O)Nc5cccc(Br)c54)[C@@H]3c3ccc(Br)cc3)CC2=O)cc1 | 3.2 µM | 10.4 µM | 2.6 µM
O=C1Nc2cccc(Br)c2[C@@]12SC[C@@H](CCO)[C@H](CO)[C@H]2c1ccc(Br)cc1 | 13.5 µM | 19.1 µM | 16.5 µM
O=C1C[C@@H]2CS[C@]3(C(=O)Nc4cccc(Br)c43)[C@H](c3ccc(Br)cc3)[C@H]2CN1c1ccc(-c2ccccc2)cc1 | 6.9 µM | 5.6 µM | 4.1 µM
O=C1C[C@@H]2CS[C@]3(C(=O)Nc4cccc(Br)c43)[C@H](c3ccc(Br)cc3)[C@H]2CN1c1ccc(F)cc1F | 4.4 µM | 9.8 µM | 2.5 µM
O=C1C[C@@H]2CS[C@]3(C(=O)Nc4cccc(Br)c43)[C@H](c3ccc(Br)cc3)[C@H]2CN1c1ccccc1F | 4.6 µM | 9.3 µM | 2.3 µM
